{
  "source": "ChEMBL document CHEMBL5620427",
  "about": "“Recent advances in Fragment-based strategies against tuberculosis” (Eur J Med Chem, 2023)",
  "key": {"[1]": {"test_system": "Mycobacterium tuberculosis", "experiment": "Antimycobacterial activity against Mycobacterium tuberculosis assessed as reduction in microbial growth by broth microdilution method", "type": "functional"}, "[2]": {"target": "T1, Enoyl-[acyl-carrier-protein] reductase [NADH] (Mycobacterium tuberculosis, UniProt P9WGR1)", "T1 sequence (P9WGR1 whole entry)": "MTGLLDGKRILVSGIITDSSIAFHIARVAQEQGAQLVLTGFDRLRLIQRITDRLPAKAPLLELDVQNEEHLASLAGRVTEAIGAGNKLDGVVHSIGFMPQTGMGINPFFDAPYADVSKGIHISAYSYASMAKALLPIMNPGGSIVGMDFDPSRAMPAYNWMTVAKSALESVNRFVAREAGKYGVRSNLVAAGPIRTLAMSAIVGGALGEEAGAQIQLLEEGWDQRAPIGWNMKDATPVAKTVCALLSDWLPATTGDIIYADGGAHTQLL", "experiment": "Inhibition of Mycobacterium tuberculosis InhA"}, "[3]": {"target": "T2, Dihydrofolate reductase (Mycobacterium tuberculosis) (UniProt P9WNX1)", "T2 sequence (whole entry)": "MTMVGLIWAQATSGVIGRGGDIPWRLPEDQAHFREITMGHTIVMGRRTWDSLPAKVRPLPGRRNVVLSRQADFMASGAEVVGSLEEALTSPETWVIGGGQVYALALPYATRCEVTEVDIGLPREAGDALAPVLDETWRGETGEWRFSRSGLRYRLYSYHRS", "experiment": "Binding affinity to Mycobacterium tuberculosis DHFR assessed as change in melting temperature at 5 uM by thermal shift assay"}, "Dihydrofolate reductase": {"target": "T3, Dihydrofolate reductase (Mycobacterium tuberculosis, UniProt P9WNX1)", "T3 sequence (P9WNX1 whole entry)": "T2 sequence (whole entry)", "experiment": "Binding affinity to Mycobacterium tuberculosis DHFR assessed as dissociation constant"}, "[4]": {"target": "HTH-type transcriptional regulator EthR (Mycobacterium tuberculosis) (UniProt P9WMC1)", "sequence (P9WMC1 whole entry)": "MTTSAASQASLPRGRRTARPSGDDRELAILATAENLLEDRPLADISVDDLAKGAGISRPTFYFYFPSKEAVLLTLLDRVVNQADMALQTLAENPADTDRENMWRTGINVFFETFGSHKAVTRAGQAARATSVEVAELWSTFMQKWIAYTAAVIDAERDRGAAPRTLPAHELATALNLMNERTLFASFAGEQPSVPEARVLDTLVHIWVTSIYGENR", "experiment": "Binding affinity to Mycobacterium tuberculosis EthR assessed as change in melting temperature at 100 uM by thermal shift assay"}, "[5]": {"test_system": "Mycobacterium tuberculosis", "experiment": "Antimycobacterial activity against Mycobacterium tuberculosis H37Rv assessed as reduction in bacterial cell growth measured after 7 days by resazurin dye based analysis", "type": "functional", "settings": "168 h, time 7 day"}, "[6]": {"test_system": "Mycobacterium tuberculosis", "experiment": "Antimycobacterial activity against Mycobacterium tuberculosis H37Rv assessed as reduction in bacterial growth incubated for 7 days by resazurin dye based assay", "type": "functional", "settings": "168 h, time 7 day"}, "[7]": {"experiment": "Metabolic stability in mouse liver microsomes assessed as intrinsic clearance", "type": "ADME, Microsome", "settings": "read-out: CLH"}, "[8]": {"test_system": "Mycobacterium tuberculosis", "experiment": "Binding affinity to Mycobacterium tuberculosis RV0078 EthR2 assessed as change in melting temperature at 1 uM by thermal shift assay"}, "[9]": {"experiment": "Inhibition of Mycobacterium tuberculosis RV0078 EthR2"}, "[10]": {"target": "T1, Enoyl-[acyl-carrier-protein] reductase [NADH]", "experiment": "Binding affinity to Mycobacterium tuberculosis InhA assessed as dissociation constant"}, "[11]": {"experiment": "Inhibition of N-terminal His-tagged wild type Mycobacterium tuberculosis Rv1837c GlcB expressed in Escherichia coli BL21 by chromatography method"}, "[12]": {"test_system": "Mycobacterium tuberculosis", "experiment": "Antimycobacterial activity against Mycobacterial tuberculosis assessed as log reduction of bacterial load", "type": "functional"}, "[13]": {"test_system": "Mycobacterium tuberculosis", "experiment": "Antibacterial activity against Mycobacterium tuberculosis ATCC 27294 assessed as reduction in bacterial cell growth measured after 48 hrs by broth microdilution method", "type": "functional"}, "[14]": {"test_system": "Mycobacterium tuberculosis", "experiment": "Binding affinity to Mycobacterium tuberculosis RV0078 EthR2 assessed as change in melting temperature at 20 uM by thermal shift assay"}, "[15]": {"test_system": "Mycobacterium tuberculosis", "experiment": "Antimycobacterial activity against Mycobacterium tuberculosis […] assessed as reduction in bacterial growth incubated for 48 hrs by resazurin dye based analysis", "type": "functional"}, "[16]": {"target": "HTH-type transcriptional regulator EthR (Mycobacterium tuberculosis, UniProt P9WMC1)", "sequence (P9WMC1 whole entry)": "as above", "experiment": "Inhibition of Mycobacterium tuberculosis EthR by SPR assay"}, "[17]": {"target": "HTH-type transcriptional regulator EthR (Mycobacterium tuberculosis) (UniProt P9WMC1)", "experiment": "Binding affinity to Mycobacterium tuberculosis EthR assessed as change in melting temperature at 20 uM by thermal shift assay"}, "[18]": {"experiment": "Metabolic stability in CD-1 mouse liver microsomes assessed as intrinsic clearance at 20 uM measured after 40 mins by LC-MS/MS analysis", "type": "ADME, Microsome"}, "[19]": {"test_system": "Mycobacterium tuberculosis", "experiment": "Antimycobacterial activity against Mycobacterium tuberculosis infected in mouse macrophage cells assessed as bacterial growth inhibition", "type": "functional, organism-based"}, "[20]": {"test_system": "Mycobacterium tuberculosis", "experiment": "Antimycobacterial activity against Mycobacterium tuberculosis Erdman infected in BALB/c mouse model assessed as log reduction of bacterial load in lung at 200 mg/kg administered via oral gavage for 2 weeks", "type": "functional"}, "[21]": {"test_system": "Mycobacterium tuberculosis", "experiment": "Antimycobacterial activity against Mycobacterium tuberculosis H37Rv ATCC 25618 assessed as bacterial growth inhibition", "type": "functional"}, "[22]": {"test_system": "Mycobacterium tuberculosis", "experiment": "Antibacterial activity against Mycobacterium tuberculosis ATCC 27294 assessed as inhibition of cell growth incubated for 7 days by broth dilution method", "type": "functional", "settings": "ATCC 27294, 168 h, time 7 day"}},
  "data": [
    {"molecule": "O=C(OCCCC1CCCC1)N1CCCC1", "values": [
      {"measurement": "MIC50", "setting": "[1]", "result": 1, "unit": "µM"}
    ]},
    {"molecule": "O=C(NCc1cccnc1)NC1CCCCC1", "values": [
      {"measurement": "IC50", "setting": "[2]; read-out: pIC50 (converted)", "result": "> 1000", "unit": "µM"}
    ]},
    {"molecule": "Cc1c(C(=O)O)cnn1-c1ccccc1", "values": [
      {"measurement": "ΔTm", "setting": "[3]", "result": 1.2, "unit": "°C"},
      {"measurement": "Kd", "setting": "Dihydrofolate reductase", "result": 0.64, "unit": "µM"}
    ]},
    {"molecule": "O=C(CCC1CCCC1)N1CCCC1", "values": [
      {"measurement": "ΔTm", "setting": "[4]", "result": 3, "unit": "°C"}
    ]},
    {"molecule": "COc1ccc(-c2nc(O)c3ccccc3n2)cc1", "values": [
      {"measurement": "MIC99", "setting": "[5]", "result": 31.5, "unit": "µg/mL"}
    ]},
    {"molecule": "CCNc1nnc(Cn2nc(C)cc2C)s1", "values": [
      {"measurement": "IC50", "setting": "[2]; read-out: pIC50 (converted)", "result": "> 1000", "unit": "µM"}
    ]},
    {"molecule": "O=C(Nc1ccc(I)cc1C(=O)O)c1ccc(Cl)c(Cl)c1", "values": [
      {"measurement": "IC50", "setting": "[2]; read-out: IC50", "result": 38, "unit": "µM"},
      {"measurement": "MIC90", "setting": "[6]", "result": 300, "unit": "µM"}
    ]},
    {"molecule": "O=C1CC2CCC(C1)N2CCc1ccc(Cl)cc1", "values": [
      {"measurement": "microsomal CLint", "setting": "[7]", "result": 60, "unit": "µL/min/mg"},
      {"measurement": "ΔTm", "setting": "[8]", "result": 3.4, "unit": "°C"},
      {"measurement": "IC50", "setting": "[9]", "result": 1, "unit": "µM"}
    ]},
    {"molecule": "Cc1cc(N)n(Cc2ccc(C(=O)NCc3ccc(F)cc3Cl)cc2)n1", "values": [
      {"measurement": "Kd", "setting": "[10]", "result": 8, "unit": "µM"}
    ]},
    {"molecule": "Cc1cncc(CNC(=O)NC2CCN(c3ncccn3)CC2)c1", "values": [
      {"measurement": "Kd", "setting": "[10]", "result": 4.7, "unit": "µM"}
    ]},
    {"molecule": "CC(=O)NC1CCN(c2ncccn2)CC1", "values": [
      {"measurement": "IC50", "setting": "[2]; read-out: pIC50 (converted)", "result": "> 1000", "unit": "µM"}
    ]},
    {"molecule": "CC(C)(C)OC(=O)Nc1ccc(I)cc1C(=O)O", "values": [
      {"measurement": "IC50", "setting": "[2]; read-out: IC50", "result": 280, "unit": "µM"},
      {"measurement": "MIC90", "setting": "[6]", "result": 300, "unit": "µM"}
    ]},
    {"molecule": "O=C(O)/C(O)=C/C(=O)c1ccc2[nH]ccc2c1", "values": [
      {"measurement": "IC50", "setting": "[11]", "result": 0.02, "unit": "µM"}
    ]},
    {"molecule": "CC1(C)CCC(Cc2cc(O)c(-c3ccccc3)c(=O)[nH]2)CC1", "values": [
      {"measurement": "IC50", "setting": "[2]; read-out: pIC50 (converted)", "result": 10, "unit": "µM"},
      {"measurement": "log(activity)", "setting": "[12]", "result": 1.5}
    ]},
    {"molecule": "Cc1cc(N)n(Cc2ccccc2)n1", "values": [
      {"measurement": "Kd", "setting": "[10]", "result": 3.3, "unit": "µM"}
    ]},
    {"molecule": "NS(=O)(=O)c1cc(Cl)cc(Cl)c1", "values": [
      {"measurement": "MIC99", "setting": "[13]", "result": 111, "unit": "µM"}
    ]},
    {"molecule": "O=C1CC2CCC(C1)N2CCc1ccc(C(F)(F)F)cc1", "values": [
      {"measurement": "ΔTm", "setting": "[14]", "result": 0.6, "unit": "°C"},
      {"measurement": "IC50", "setting": "[9]", "result": 0.2, "unit": "µM"}
    ]},
    {"molecule": "O=C(O)/C(O)=C/C(=O)c1ccccc1Br", "values": [
      {"measurement": "IC50", "setting": "[11]", "result": 0.6, "unit": "µM"},
      {"measurement": "MIC99", "setting": "[15]", "result": 6.25, "unit": "µM"}
    ]},
    {"molecule": "CNCc1ccc(N2CCCCC2)cc1", "values": [
      {"measurement": "ΔTm", "setting": "[4]", "result": 3.8, "unit": "°C"},
      {"measurement": "IC50", "setting": "[16]", "result": "> 100", "unit": "µM"}
    ]},
    {"molecule": "O=C(O)/C=C/c1cccc(C(F)(F)F)c1", "values": [
      {"measurement": "ΔTm", "setting": "[17]", "result": 3.2, "unit": "°C"}
    ]},
    {"molecule": "Cc1cc(N)n(Cc2nnc(Nc3ccn(Cc4c(F)cccc4Cl)n3)s2)n1", "values": [
      {"measurement": "Kd", "setting": "[10]", "result": 7.1, "unit": "µM"}
    ]},
    {"molecule": "O=C(CCCC1CCCCC1)N1CCCC1", "values": [
      {"measurement": "MIC50", "setting": "[1]", "result": 1, "unit": "µM"}
    ]},
    {"molecule": "Cc1ccn(C(C)c2nnc(Nc3ccn(Cc4c(F)cccc4Cl)n3)s2)n1", "note": "(stereo not drawn)", "values": [
      {"measurement": "Kd", "setting": "[10]", "result": 6.3, "unit": "µM"}
    ]},
    {"molecule": "COc1ccc(CCC(=O)N2CCC(SS[C@@H]3CCN(C(=O)CCc4ccc(OC)cc4)C3)C2)cc1", "note": "(stereo partly drawn)", "values": [
      {"measurement": "IC50", "setting": "[16]", "result": 1.1, "unit": "µM"}
    ]},
    {"molecule": "O=C(NCCC(F)(F)F)c1ccc(-c2noc(C3CC3)n2)cc1", "values": [
      {"measurement": "CLH", "setting": "[18]", "result": 69, "unit": "µL/min"},
      {"measurement": "ΔTm", "setting": "[17]", "result": 10.2, "unit": "°C"},
      {"measurement": "EC50", "setting": "[19]", "result": 0.07, "unit": "µM"},
      {"measurement": "log(activity)", "setting": "[20]", "result": 2}
    ]},
    {"molecule": "CCOC(=O)c1cc(Cl)c(O)c(Cl)c1", "values": [
      {"measurement": "MIC99", "setting": "[13]", "result": "< 53", "unit": "µM"}
    ]},
    {"molecule": "Nc1c(Cl)cc(S(N)(=O)=O)cc1Cl", "values": [
      {"measurement": "MIC", "setting": "[21]", "result": 833, "unit": "µM"}
    ]},
    {"molecule": "O=C(O)c1cc(Cl)c(O)c(Cl)c1", "values": [
      {"measurement": "MIC", "setting": "[22]", "result": 971, "unit": "µM"}
    ]},
    {"molecule": "O=C(CCc1c[nH]c2ccccc12)Nc1c(C(=O)O)cnn1-c1ccccc1", "values": [
      {"measurement": "ΔTm", "setting": "[3]", "result": 5.1, "unit": "°C"},
      {"measurement": "Kd", "setting": "Dihydrofolate reductase", "result": 0.017, "unit": "µM"}
    ]},
    {"molecule": "N#Cc1ccc(N2CCC(CCC(=O)N3CCCC3)CC2)cc1", "values": [
      {"measurement": "ΔTm", "setting": "[4]", "result": 7.5, "unit": "°C"}
    ]}
  ]
}
